What follows are molecules tested against T1, human JAK2 (Homo sapiens, UniProt O60674) (assay: In vitro JAK kinase assay (HTRF, phosphorylation of biotinylated peptide)). Conditions: catalytic domain a.a. 828-1132, 30 μM ATP, 500 nM peptide, room temperature 1 hr; read-out: JAK-2 IC50.
T1 construct: JAK2 (a.a. 828-1132); His tag (N); made in house; host or cells: insect cells (baculovirus)
Format: biochemical
Method in brief: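 His-tagged human JAK2 catalytic domain (a.a. 828-1132), baculovirus/insect-cell expressed; phosphorylation of 500 nM biotinylated peptide at 30 μM ATP in 50 mM Tris pH 7.8, 100 mM NaCl, 5 mM DTT, 0.01% BSA. 1 h at room temperature, EDTA stop, HTRF read (Eu-Py20/SA-APC); IC50.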

T1 sequence (O60674 828-1132): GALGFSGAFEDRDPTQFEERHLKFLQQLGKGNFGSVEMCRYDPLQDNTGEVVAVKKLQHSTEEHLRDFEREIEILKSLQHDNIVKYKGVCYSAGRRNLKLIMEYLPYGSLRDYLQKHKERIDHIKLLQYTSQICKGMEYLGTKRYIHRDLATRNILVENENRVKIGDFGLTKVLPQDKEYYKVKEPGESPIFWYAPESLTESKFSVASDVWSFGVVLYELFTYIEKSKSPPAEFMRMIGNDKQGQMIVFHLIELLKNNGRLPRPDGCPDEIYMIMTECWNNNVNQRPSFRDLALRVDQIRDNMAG

IC50, < 100 nM:
N#CCC(C1CCCC1)n1cc(-c2ccnc(Nc3ccc(N4CCCCC4=O)cc3)n2)cn1 (racemic) [Example 105, 3-cyclopentyl-3-(4-(2-(4-(2-oxopiperidin-1-yl)phenylamino)pyrimidin-4-yl)-1H-pyrazol-1-yl)propanenitrile]
N#CCC(C1CCC1)n1cc(-c2ccnc(Nc3ccc(N4CCOCC4)cc3)n2)cn1 (racemic) [Example 171, 3-cyclobutyl-3-(4-(2-(4-morpholinophenylamino)pyrimidin-4-yl)-1H-pyrazol-1-yl)propanenitrile]
COc1cnc(Nc2ccc(-n3cccn3)cc2)nc1-c1cnn(C(CC#N)C2CCCC2)c1 (racemic) [Example 102, 3-(4-(2-(4-(1H-pyrazol-1-yl)phenylamino)-5-methoxypyrimidin-4-yl)-1H-pyrazol-1-yl)-3-cyclopentylpropanenitrile]
COc1ccc(Nc2ncc(C)c(-c3cnn(C(CC#N)C4CCCC4)c3)n2)cc1 (racemic) [Example 75, 3-cyclopentyl-3-(4-(2-(4-methoxyphenylamino)-5-methylpyrimidin-4-yl)-1H-pyrazol-1-yl)propanenitrile]
CS(=O)(=O)N1CCC(C(CC#N)n2cc(-c3ccnc(Nc4ccc(N5CCOCC5)cc4)n3)cn2)CC1 (racemic) [Example 24, 3-(1-(methylsulfonyl)piperidin-4-yl)-3-(4-(2-(4-morpholinophenylamino)pyrimidin-4-yl)-1H-pyrazol-1-yl)propanenitrile]
CN1CCC(NC(=O)c2cccc(Nc3nccc(-c4cnn(C(CC#N)C5CCCC5)c4)n3)c2)CC1 (racemic) [Example 154, 3-(4-(1-(2-cyano-1-cyclopentylethyl)-1H-pyrazol-4-yl)pyrimidin-2-ylamino)-N-(1-methylpiperidin-4-yl)benzamide]
C[C@@H]1CN(S(=O)(=O)Nc2ccc(Nc3nccc(-c4cnn(C(CC#N)C5CCCC5)c4)n3)cc2)C[C@H](C)O1 (mixture of isomers) [Example 182, N-(4-(4-(1-(2-cyano-1-cyclopentylethyl)-1H-pyrazol-4-yl)pyrimidin-2-ylamino)phenyl)-(cis)-2,6-dimethylmorpholine-4-sulfonamide]
N#CCC1(n2cc(-c3ccnc(Nc4ccc(C(=O)N5CCCC5)cc4)n3)cn2)CC(C#N)C1 (single isomer, unassigned) [Example 288, 3-(cyanomethyl)-3-(4-(2-(4-(pyrrolidine-1-carbonyl)phenylamino)pyrimidin-4-yl)-1H-pyrazol-1-yl)cyclobutanecarbonitrile]
CN1CCC(NC(=O)c2ccc(Nc3nccc(-c4cnn(C(CC#N)C5CCCC5)c4)n3)cc2)CC1 (racemic) [Example 227, 4-(4-(1-(2-cyano-1-cyclopentylethyl)-1H-pyrazol-4-yl)pyrimidin-2-ylamino)-N-(1-methylpiperidin-4-yl)benzamide]
Cn1ccc(Nc2nccc(-c3cnn(C(CC#N)CC4CCN(C(=O)c5ccc(F)cc5F)CC4)c3)n2)n1 (racemic) [Example 8, 4-(1-(2,4-difluorobenzoyl)piperidin-4-yl)-3-(4-(2-(1-methyl-1H-pyrazol-3-ylamino)pyrimidin-4-yl)-1H-pyrazol-1-yl)butanenitrile]
